Results on three molecules are retold here after publication PMC8040948 (Journal of medicinal chemistry, 2020).

SMILES strings stand for the structures. Values after ≈ are worked out from the molar mass of the structure shown. “Also recorded” adds a separate entry of the source. Read-outs that look alike come from different tables or passages of the source. Bounds are passed on as bounds.

One data set has as its target T1, hP2Y14R (Homo sapiens, UniProt Q15391).
T1 sequence (Q15391 1-338): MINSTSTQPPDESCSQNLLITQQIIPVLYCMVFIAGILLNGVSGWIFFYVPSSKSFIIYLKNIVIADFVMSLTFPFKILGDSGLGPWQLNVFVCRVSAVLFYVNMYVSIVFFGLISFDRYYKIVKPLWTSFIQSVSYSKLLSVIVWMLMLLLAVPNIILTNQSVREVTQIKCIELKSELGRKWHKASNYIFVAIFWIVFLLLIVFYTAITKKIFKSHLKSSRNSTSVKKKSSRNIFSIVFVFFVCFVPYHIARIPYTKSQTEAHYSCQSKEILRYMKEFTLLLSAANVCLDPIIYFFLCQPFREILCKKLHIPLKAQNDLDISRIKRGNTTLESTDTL
The data set is classed as binding. The note with it: hP2Y14R, IC50 (nM), Table 2; hP2Y14R-CHO cells; values from Tables 1A and 1B.

Data set [1] in a line: Relative lipophilicity from RP-HPLC retention time. The data set is classed as physicochemical. As to conditions: RP-HPLC retention time (C18), 10 to 100% acetonitrile in 10 mM triethylammonium acetate.
Data set [2] can be described thus: Aqueous solubility, pION method.
A short description of data set [3]: Plasma protein binding in three species.
Data set [4] is described as follows: Observed solubility in water, DMSO or aqueous DMSO. The note with it: water.
In another data set the test system is ASP/OVA-sensitized mice. In words: Ovalbumin/Aspergillus protease mouse model of allergic asthma, BALF cell counts. As to conditions: 10 mg/kg ip 30 min prior to allergen challenge, BALF 2 days post-challenge.
The test system of data set [5] is CCI of the sciatic nerve in adult male ICR mice. In words: Chronic constriction injury. The note with it: mouse, 10 μmol/kg, ip.
The target in a further data set is T2, mP2Y14R (Mus musculus, UniProt Q9ESG6).
T2 sequence (Q9ESG6 1-338): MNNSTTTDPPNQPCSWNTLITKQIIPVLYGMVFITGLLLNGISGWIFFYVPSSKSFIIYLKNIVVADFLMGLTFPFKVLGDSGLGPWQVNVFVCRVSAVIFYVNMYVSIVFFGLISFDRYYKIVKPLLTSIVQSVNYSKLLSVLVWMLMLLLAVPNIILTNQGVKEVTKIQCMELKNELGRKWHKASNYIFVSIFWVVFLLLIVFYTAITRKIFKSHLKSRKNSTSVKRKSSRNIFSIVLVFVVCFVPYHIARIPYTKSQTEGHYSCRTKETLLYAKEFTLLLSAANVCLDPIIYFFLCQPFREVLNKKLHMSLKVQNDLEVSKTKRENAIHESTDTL
As to conditions: species comparison.

A further data set deals with T3, CYP1A2 (Homo sapiens, UniProt P05177).
T3 sequence (P05177 1-516): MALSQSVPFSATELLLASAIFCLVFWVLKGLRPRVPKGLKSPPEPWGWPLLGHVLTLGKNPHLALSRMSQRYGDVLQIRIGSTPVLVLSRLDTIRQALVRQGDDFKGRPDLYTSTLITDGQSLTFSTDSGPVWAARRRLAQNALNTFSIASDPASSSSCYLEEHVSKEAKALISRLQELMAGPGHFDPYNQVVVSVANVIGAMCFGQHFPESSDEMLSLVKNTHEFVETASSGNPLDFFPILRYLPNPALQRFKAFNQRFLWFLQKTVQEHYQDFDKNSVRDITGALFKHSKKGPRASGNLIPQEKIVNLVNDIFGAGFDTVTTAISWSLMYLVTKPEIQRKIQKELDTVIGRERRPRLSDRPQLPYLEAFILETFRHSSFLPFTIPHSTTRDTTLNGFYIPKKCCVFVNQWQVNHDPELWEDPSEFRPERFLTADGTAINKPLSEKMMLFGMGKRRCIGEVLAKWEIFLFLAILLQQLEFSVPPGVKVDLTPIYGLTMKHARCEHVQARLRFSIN
In words: CYP1A2 inhibition.

The target in data set [6] is T4, CYP3A4 (Homo sapiens, UniProt P08684). In words: CYP3A4 inhibition.
T4 sequence (P08684 whole entry): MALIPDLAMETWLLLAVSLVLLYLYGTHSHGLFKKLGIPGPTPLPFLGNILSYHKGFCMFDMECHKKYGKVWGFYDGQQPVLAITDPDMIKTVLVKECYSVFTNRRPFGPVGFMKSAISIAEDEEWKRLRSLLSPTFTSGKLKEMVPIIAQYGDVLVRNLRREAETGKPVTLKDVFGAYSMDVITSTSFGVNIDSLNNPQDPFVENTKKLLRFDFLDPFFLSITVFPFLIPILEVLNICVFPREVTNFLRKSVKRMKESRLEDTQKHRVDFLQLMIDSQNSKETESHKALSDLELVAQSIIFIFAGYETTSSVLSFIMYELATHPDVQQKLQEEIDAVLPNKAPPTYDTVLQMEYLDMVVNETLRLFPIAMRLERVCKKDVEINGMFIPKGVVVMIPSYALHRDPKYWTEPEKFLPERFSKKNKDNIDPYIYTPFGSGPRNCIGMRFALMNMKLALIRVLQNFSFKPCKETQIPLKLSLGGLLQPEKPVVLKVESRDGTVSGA
The nature of data set [7]: Pharmacokinetics in the rat, ip and iv.
A further data set addresses CYP2C9 (Homo sapiens, UniProt P11712). The note with it: read-out: CYP2C9 (IC50); ref Yu et al.[23]; cited from earlier work.
Data set [8] addresses T4, CYP3A4. The note with it: read-out: CYP3A4 (IC50); ref Yu et al.[23]; cited from earlier work.
For data set [9] the following is noted: human, rat, and mouse plasma, ref Yu et al.[23]; cited from earlier work.
For data set [10] the following is noted: human (h) microsomes; ref Yu et al.[23]; cited from earlier work.
For data set [11] the following is noted: ref Yu et al.[23]; cited from earlier work.
For data set [12] the following is noted: ref Yu et al.[23]; cited from earlier work. The source holds these as a separate data set.

CYP2C9, sequence (P11712 whole entry): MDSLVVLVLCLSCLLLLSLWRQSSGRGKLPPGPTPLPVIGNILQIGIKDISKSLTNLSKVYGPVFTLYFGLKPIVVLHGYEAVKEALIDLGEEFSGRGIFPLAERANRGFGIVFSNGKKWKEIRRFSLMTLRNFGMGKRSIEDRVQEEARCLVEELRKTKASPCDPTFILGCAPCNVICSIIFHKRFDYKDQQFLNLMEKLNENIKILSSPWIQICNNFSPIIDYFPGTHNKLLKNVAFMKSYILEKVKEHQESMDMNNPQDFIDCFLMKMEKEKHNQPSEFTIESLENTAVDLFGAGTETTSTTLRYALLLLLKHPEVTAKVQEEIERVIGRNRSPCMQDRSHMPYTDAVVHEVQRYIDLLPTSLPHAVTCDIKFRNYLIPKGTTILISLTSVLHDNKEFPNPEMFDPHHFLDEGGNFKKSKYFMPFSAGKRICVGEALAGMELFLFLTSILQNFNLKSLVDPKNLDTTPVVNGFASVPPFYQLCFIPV

In the case of `NCCOCCOCCOCCOCCOCCOCCC(=O)N1CCC(c2ccc(-c3cc(C(=O)O)cc4cc(-c5ccc(C(F)(F)F)cc5)ccc34)cc2)CC1` [Compound 12, 4-(4-(1-(1-Amino-3,6,9,12,15,18-hexaoxahenicosan-21-oyl)piperidin-4-yl)phenyl)-7-(4-(trifluoromethyl)phenyl)-2-naphthoic Acid], on hP2Y14R, the IC50 was 963 ± 417 nM. Moreover, the “lipophilicity (Δk), relative to 1” value in [1] came out at 0.71 ± 0.03. Also, the solubility was 8.02 ± 1.01 µg/mL (≈ 9.89 µM) in [2] (pH 4), 7.16 ± 1.16 µg/mL (≈ 8.83 µM) in data set [2] (pH 7.4) and not below 150 mM in data set [4]. In data set [2] (pH 7.4, relative to 1), the “fold greater aqueous solubility than 1” value is on record as approximately 20 fold. In addition, in data set [3], the plasma protein binding entry was “high”. For the same molecule, in the data set with ASP/OVA-sensitized mice, the “effect on eosinophilic airway inflammation” value was “inactive”. The “effect on the hind paw response contralateral to the injury” value in data set [5] is listed as “No effect”. For the same molecule, in [5], the “time of peak protection post-injection” value is 1 to 2 h. The “reversal of CCI-induced mechano-allodynia” value in [5] (7 days post-CCI, ipsilateral hind paw) was “reduced chronic pain; also recorded: fully efficacious”. In addition, the “fold greater affinity at the mouse homologue than at the hP2Y14R” value on mP2Y14R was determined as 2 fold.

Consider `O=C(O)c1cc(-c2ccc(C34CCN(CC3)CC4)cc2)cc(-n2cc(-c3ccc(C(F)(F)F)cc3)nn2)c1` [Compound 18, 4′-(Quinuclidin-4-yl)-5-(4-(4-(trifluoromethyl)phenyl)-1H-1,2,3-triazol-1-yl)-[1,1′-biphenyl]-3-carboxylic Acid], for which the IC50 was determined as 14.1 µM on CYP1A2 and 9.94 µM at CYP3A4 [6]. The solubility in data set [2] (pH 4, aqueous solubility (pH 4.0, μg/mL), Table 5, pH 4.0, mean ± SD, pION method) is 14.4 ± 0.3 µg/mL (≈ 27.8 µM); in [2] (pH 7.4, aqueous solubility (pH 7.4, μg/mL), Table 5, pH 7.4, mean ± SD, pION method) it was less than 0.1 µg/mL. Moreover, the “time at which maximal plasma concentration was reached” value in data set [7] lay in the range of 3 to 4 h. The “plasma concentration at the 12 h time point” value in data set [7] (highest dose (10 mg/kg), 12 h) lay in the range of 200 to 400 ng/kg. For the same molecule, the plasma protein binding result in [3] is recorded as “high”.

Consider `NC(=O)c1ccc(-c2cc(C(=O)O)cc(-n3cc(-c4ccc(C(F)(F)F)cc4)nn3)c2)cc1` [Compound 22], for which the IC50 on CYP2C9 and at CYP3A4 [8] was more than 30 µM each time. The “plasma stability (three species) (% remaining at 120 min)” value in [9] was 94–100%. Moreover, the “microsomal stability (t1/2, min)” value in [10] is 145 min. In addition, the “simulated intestinal fluid (% remaining at 120 min)” value in [11] was 100%. In data set [12], the “simulated gastric fluid (% remaining at 120 min)” value was 100%.
